Laboratory results from the NIST ThermoML archive (doi:10.1016/j.jct.2015.01.006).

Test: mn = molality of the nth substance listed, in mol/kg
Conditions: 298.15 K, 100 kPa, Liquid, Vibrating tube method

[O]=[Re](=[O])(=[O])[OH] [perrhenic acid] + O
Conditions | mass density [kg/m3]
m1 = 0.15 | 1027.57
m1 = 0.31 | 1057.54
m1 = 0.46 | 1087.27
m1 = 0.6 | 1115.28
m1 = 0.75 | 1143.92
m1 = 0.89 | 1169.78
m1 = 1.03 | 1195.77
m1 = 1.17 | 1220.36
m1 = 1.31 | 1245.59
m1 = 1.45 | 1270.29
m1 = 1.58 | 1292.96
m1 = 1.71 | 1316
m1 = 1.93 | 1361.24
m1 = 2.38 | 1429.34
m1 = 3.33 | 1584.96
m1 = 3.78 | 1649.71
m1 = 4.08 | 1693.28
m1 = 4.29 | 1716.22
m1 = 4.63 | 1782.41
m1 = 4.72 | 1791.73
m1 = 4.96 | 1821.44
m1 = 5.23 | 1856.73
m1 = 5.45 | 1877.16
m1 = 5.66 | 1910.98
m1 = 5.92 | 1933.4
m1 = 6.06 | 1957.44
m1 = 6.26 | 1978.54
m1 = 6.5 | 2025.89
m1 = 6.8 | 2054.75
m1 = 7.05 | 2069.04
m1 = 7.13 | 2085.82
m1 = 7.42 | 2107.74
m1 = 7.44 | 2117.26
m1 = 7.65 | 2134.62
m1 = 7.86 | 2153.7
m1 = 7.95 | 2166.62
m1 = 8.2 | 2192.45
m1 = 11.82 | 2516.75
